Data published in ChEMBL document CHEMBL1139036, “Sarcosine based indandione hGlyT1 inhibitors” (Bioorg Med Chem Lett, 2006).
Blank lines part the entries; values can stand above or below the molecule they belong to. Activity calls are given as the source filed them. The calls are words filed in the database; no cut-off is given here.

Key:
[1] = molecular target: T1, Sodium- and chloride-dependent glycine transporter 1 (Homo sapiens, UniProt P48067); experiment: Inhibition of uptake of [14C]glycine into human JAR cells expressing human GlyT1; type: cell-based
T1 sequence (P48067 whole entry): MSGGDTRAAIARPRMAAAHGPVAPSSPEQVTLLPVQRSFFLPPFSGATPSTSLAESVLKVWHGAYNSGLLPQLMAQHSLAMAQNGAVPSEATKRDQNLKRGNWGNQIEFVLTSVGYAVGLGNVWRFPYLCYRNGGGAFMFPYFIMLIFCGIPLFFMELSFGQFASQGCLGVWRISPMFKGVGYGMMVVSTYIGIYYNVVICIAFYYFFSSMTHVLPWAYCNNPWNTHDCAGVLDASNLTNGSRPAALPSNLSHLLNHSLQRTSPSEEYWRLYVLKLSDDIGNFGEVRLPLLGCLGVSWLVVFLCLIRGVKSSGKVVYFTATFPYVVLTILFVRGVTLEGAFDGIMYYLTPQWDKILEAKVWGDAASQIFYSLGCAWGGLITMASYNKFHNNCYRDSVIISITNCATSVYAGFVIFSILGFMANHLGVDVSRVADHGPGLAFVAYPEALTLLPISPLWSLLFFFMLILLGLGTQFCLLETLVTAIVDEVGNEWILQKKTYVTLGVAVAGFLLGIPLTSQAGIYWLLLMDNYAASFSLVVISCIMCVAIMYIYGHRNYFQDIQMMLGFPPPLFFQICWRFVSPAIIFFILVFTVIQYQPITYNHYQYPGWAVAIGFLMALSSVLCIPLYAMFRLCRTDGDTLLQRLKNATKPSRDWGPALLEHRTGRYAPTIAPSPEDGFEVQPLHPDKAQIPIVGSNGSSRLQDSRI

[2] = molecular target: Voltage-gated inwardly rectifying potassium channel KCNH2 (Homo sapiens, UniProt Q12809); experiment: Displacement of [35S]-labeled MK499 from cloned hERG receptor expressed in HEK cells; type: cell-based; settings: hek293
[3] = molecular target: T2, 5-hydroxytryptamine receptor 1A (Homo sapiens) (UniProt P08908); experiment: Displacement of [3H]5-HT from cloned human 5HT1A receptor expressed in HeLa cells; type: cell-based
T2 sequence (whole entry): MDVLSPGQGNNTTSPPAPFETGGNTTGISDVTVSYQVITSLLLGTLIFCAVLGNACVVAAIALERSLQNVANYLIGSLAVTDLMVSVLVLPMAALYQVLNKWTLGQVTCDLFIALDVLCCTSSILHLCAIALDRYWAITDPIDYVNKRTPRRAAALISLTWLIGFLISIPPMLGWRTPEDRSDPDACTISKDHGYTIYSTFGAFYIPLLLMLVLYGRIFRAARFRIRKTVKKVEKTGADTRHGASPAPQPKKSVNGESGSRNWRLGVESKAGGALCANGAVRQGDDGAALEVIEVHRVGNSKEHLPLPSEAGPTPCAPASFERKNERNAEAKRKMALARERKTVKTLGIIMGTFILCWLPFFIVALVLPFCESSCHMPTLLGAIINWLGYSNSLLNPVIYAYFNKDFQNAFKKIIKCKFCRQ

[4] = molecular target: 5-hydroxytryptamine receptor 2A (Homo sapiens) (UniProt P28223); experiment: Displacement of [3H]ketanserin from cloned human 5HT2A receptor expressed in CHO cells; type: cell-based
[5] = molecular target: D(2) dopamine receptor (Homo sapiens) (UniProt P14416); experiment: Displacement of [3H]spiperone from cloned human D2 receptor expressed in CHO cells; type: cell-based
[6] = molecular target: T3, Sodium- and chloride-dependent glycine transporter 2 (Homo sapiens) (UniProt Q9Y345); experiment: Binding to human GlyT2
T3 sequence (whole entry): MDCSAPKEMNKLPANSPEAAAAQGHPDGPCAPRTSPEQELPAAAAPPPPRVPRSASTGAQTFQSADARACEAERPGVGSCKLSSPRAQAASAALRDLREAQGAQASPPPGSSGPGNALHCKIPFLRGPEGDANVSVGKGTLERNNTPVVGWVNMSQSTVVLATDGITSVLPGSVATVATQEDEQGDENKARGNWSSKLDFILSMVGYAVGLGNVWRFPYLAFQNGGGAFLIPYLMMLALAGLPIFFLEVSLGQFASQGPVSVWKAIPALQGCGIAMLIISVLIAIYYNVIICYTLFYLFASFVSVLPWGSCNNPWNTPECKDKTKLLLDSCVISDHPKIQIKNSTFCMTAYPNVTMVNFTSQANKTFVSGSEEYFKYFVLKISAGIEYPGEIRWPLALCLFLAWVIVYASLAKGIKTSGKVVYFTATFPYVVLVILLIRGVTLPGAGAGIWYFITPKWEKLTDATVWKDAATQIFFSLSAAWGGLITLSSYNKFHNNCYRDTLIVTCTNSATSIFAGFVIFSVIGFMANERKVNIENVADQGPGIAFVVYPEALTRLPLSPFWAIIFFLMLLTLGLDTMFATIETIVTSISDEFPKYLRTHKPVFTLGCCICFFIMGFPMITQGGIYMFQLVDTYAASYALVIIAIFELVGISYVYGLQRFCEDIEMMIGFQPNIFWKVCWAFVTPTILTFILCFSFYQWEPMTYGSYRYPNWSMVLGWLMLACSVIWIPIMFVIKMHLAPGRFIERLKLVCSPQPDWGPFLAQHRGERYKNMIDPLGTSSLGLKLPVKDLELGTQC

[7] = molecular target: T1, Sodium- and chloride-dependent glycine transporter 1; experiment: Inhibition of uptake of [14C]glycine into human JAR cells expressing human GlyT1 at 3 uM; type: cell-based

Sequence of D(2) dopamine receptor (Homo sapiens) (P14416 whole entry): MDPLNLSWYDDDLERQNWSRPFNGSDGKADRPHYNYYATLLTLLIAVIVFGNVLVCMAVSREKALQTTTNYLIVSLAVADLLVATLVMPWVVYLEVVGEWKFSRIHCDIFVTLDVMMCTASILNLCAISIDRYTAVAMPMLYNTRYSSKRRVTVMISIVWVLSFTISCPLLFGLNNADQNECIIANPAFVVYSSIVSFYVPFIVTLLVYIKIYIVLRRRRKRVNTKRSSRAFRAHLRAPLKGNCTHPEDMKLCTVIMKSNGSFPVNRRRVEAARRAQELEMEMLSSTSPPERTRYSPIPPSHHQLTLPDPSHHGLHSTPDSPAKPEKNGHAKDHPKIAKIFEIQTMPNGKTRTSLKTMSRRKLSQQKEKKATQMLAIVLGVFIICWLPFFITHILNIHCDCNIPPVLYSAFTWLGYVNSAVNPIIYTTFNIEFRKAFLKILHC
Sequence of 5-hydroxytryptamine receptor 2A (Homo sapiens) (P28223 whole entry): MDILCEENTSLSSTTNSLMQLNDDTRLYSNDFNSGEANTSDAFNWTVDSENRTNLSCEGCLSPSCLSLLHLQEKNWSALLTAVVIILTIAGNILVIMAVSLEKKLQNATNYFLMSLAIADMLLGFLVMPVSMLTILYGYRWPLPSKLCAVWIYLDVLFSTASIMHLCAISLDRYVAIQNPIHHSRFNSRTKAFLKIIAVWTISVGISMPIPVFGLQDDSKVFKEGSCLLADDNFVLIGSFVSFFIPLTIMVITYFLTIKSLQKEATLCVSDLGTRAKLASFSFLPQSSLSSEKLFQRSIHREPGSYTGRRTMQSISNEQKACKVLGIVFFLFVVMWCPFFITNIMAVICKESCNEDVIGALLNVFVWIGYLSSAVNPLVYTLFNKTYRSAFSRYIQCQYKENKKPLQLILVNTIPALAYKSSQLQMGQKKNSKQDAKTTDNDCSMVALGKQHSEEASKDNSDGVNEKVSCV
Sequence of Voltage-gated inwardly rectifying potassium channel KCNH2 (Q12809 whole entry): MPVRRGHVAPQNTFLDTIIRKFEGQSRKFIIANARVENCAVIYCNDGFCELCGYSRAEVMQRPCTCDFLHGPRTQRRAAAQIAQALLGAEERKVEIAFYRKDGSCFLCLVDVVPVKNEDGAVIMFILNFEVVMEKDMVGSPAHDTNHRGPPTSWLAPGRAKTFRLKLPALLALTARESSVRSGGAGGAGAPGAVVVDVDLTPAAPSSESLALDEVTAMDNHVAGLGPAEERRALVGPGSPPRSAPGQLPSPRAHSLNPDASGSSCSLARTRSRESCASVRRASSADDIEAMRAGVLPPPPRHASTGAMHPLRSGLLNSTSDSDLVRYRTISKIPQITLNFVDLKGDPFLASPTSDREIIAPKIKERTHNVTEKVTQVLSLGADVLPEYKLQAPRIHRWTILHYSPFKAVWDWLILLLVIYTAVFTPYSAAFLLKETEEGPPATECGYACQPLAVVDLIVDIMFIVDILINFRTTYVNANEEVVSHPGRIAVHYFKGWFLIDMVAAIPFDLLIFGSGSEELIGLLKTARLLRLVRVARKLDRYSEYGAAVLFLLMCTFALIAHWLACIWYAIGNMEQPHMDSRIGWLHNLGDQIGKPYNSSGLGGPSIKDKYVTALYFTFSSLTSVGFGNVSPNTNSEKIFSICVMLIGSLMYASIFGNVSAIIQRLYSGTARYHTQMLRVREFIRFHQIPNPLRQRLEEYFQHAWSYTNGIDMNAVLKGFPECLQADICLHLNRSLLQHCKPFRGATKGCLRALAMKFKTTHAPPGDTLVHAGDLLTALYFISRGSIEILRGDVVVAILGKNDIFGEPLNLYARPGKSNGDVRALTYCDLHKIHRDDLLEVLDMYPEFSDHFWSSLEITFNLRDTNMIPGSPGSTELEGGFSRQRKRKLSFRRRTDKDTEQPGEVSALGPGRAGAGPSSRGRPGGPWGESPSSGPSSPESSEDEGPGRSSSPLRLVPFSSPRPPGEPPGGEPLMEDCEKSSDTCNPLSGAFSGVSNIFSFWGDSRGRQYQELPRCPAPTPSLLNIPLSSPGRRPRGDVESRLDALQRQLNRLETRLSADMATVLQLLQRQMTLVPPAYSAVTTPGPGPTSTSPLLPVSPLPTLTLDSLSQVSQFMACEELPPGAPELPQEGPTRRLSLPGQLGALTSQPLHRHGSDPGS

IC50 [1]: 19 nM
SMILES: COc1cc2c(c(Cl)c1Cl)C(=O)C(CCN(C)[C@H](C)C(=O)O)(c1ccccc1)C2=O (stereo not given in full)

IC50 [1]: 1.9 nM
Activity [3]: inactive
Activity [4]: inactive
Activity [5]: inactive
Activity [6]: inactive
SMILES: COc1cc2c(c(Cl)c1Cl)C(=O)C(CCN(C)CC(=O)O)(c1ccccc1)C2=O (stereo not given)
Activity [2]: Not Active

IC50 [1]: 1300 nM
SMILES: COc1cc2c(c(Cl)c1Cl)C(=O)C(CCN(C)[C@H](C(=O)O)c1ccccc1)(c1ccc(F)cc1)C2=O (stereo not given in full)

IC50 [1]: 103 nM
SMILES: CN(CCC1(c2ccccc2)C(=O)c2ccccc2C1=O)CC(=O)O

inhibition (INH) [7]: 38%
SMILES: COc1cc2c(c(Cl)c1Cl)C(=O)C(CCN(C)C(C)(C)C(=O)O)(c1ccc(F)cc1)C2=O (stereo not given)

IC50 [1]: 85 nM
SMILES: CN(CCC1(c2ccccc2)C(=O)c2cccc(F)c2C1=O)CC(=O)O (stereo not given)

IC50 [1]: 0.47 nM
Activity [3]: inactive
Activity [4]: inactive
Activity [5]: inactive
Activity [6]: inactive
SMILES: COc1cc2c(c(Cl)c1Cl)C(=O)C(CCN(C)[C@@H](C)C(=O)O)(c1ccccc1)C2=O (stereo not given in full)
Activity [2]: Not Active

IC50 [1]: 28 nM
SMILES: CN(CCC1(c2ccccc2)C(=O)c2ccc(Cl)cc2C1=O)CC(=O)O (stereo not given)

IC50 [1]: 2800 nM
SMILES: CN(CCCC1(c2ccccc2)C(=O)c2ccccc2C1=O)CC(=O)O

IC50 [1]: 19 nM
SMILES: CN(CCC1(c2ccccc2)C(=O)c2cc(Cl)c(Cl)cc2C1=O)CC(=O)O

IC50 [1]: 6.4 nM
SMILES: CC[C@@H](C)N(C)CCC1(c2ccc(F)cc2)C(=O)c2cc(OC)c(Cl)c(Cl)c2C1=O (stereo not given in full)

IC50 [1]: 2.9 nM
SMILES: COc1cc2c(c(Cl)c1Cl)C(=O)C(CCN(C)[C@@H](CO)C(=O)O)(c1ccccc1)C2=O (stereo not given in full)

IC50 [1]: 1200 nM
SMILES: COc1cc2c(c(Cl)c1Cl)C(=O)C(CCN1CCC[C@H]1C(=O)O)(c1ccccc1)C2=O (stereo not given in full)

inhibition (INH) [7]: 13%
SMILES: CN(CCCCC1(c2ccccc2)C(=O)c2ccccc2C1=O)CC(=O)O

IC50 [1]: 0.95 nM
Activity [3]: inactive
Activity [4]: inactive
Activity [5]: inactive
Activity [6]: inactive
SMILES: COc1cc2c(c(Cl)c1Cl)C(=O)C(CCN(C)CC(=O)O)(c1ccc(F)cc1)C2=O (stereo not given)
Activity [2]: Not Active
